Measurements as given in patent US12435051B2, “Dual modulator of mGluR5 and 5-HT2A receptor, and use thereof” (Vivozon Inc., priority 2020, dated 2025).

Key:
mGluR5 = molecular target: T1, mGluR5 (Homo sapiens, UniProt P41594); assay: Fluorescence-based Ca2+ mobilization assay; format: cell-based; conditions: HEK293 cells overexpressing mGluR5; L-glutamate at EC80
T1 construct: expressed in transfected cells; host or cells: HEK293
Procedure: In order to measure the activity on the mGluR5, an experiment was carried out to check the change in the intracellular Ca^2+ level using the HEK293 cell line permanently overexpressing the mGluR5. The cells in the cell culture medium were aliquoted into a 384-well plate coated with poly-D-lysine and cultured in a 37° C. incubator supplied with 5% CO2. The next day, the medium was removed and a dye loading buffer—in which a reagent capable of measuring Ca^2+ was dissolved—was added, and then incubated at 37° C. for 60 minutes. The test compounds were dissolved in 100% DMSO at a final concentration of 10 mM to make a stock solution. The starting concentration of […] was prepared from the stock solution, followed by serial dilutions to prepare working solutions (test compound working solutions). The test compound working solutions were added to the cells that were incubated in the dye loading buffer, which were maintained for 30 minutes at room temperature in a light-shielding state before measurement. The Ca^2+ level change induced by L-glutamate at EC80 concentration was measured for 2 minutes using FLIPR Tetra (MDS Analytical Technologies). The fluorescent Ca^2+ signal values in the presence of the test compounds were normalized to the fluorescent signal elicited by […] concentration of L-glutamate as 100% and that elicited by vehicle as 0% to estimate % inhibition of the test compounds. The efficacy of the test compounds was calculated as IC50 values and represented in Table 1. (+: 1,000-2,000 nM, ++: 500-1,000 nM, +++: 100-500 nM, ++++: less than 100 nM).

human 5-HT2AR = molecular target: T2, human 5-HT2AR (Homo sapiens, UniProt P28223); assay: HTRF-based IP1 accumulation assay (5-HT2AR antagonistic effect); format: cell-based; conditions: HEK293 cells overexpressing human 5-HT2AR; serotonin at EC80
T2 construct: expressed in transfected cells; host or cells: HEK293
T2 sequence (P28223 whole entry): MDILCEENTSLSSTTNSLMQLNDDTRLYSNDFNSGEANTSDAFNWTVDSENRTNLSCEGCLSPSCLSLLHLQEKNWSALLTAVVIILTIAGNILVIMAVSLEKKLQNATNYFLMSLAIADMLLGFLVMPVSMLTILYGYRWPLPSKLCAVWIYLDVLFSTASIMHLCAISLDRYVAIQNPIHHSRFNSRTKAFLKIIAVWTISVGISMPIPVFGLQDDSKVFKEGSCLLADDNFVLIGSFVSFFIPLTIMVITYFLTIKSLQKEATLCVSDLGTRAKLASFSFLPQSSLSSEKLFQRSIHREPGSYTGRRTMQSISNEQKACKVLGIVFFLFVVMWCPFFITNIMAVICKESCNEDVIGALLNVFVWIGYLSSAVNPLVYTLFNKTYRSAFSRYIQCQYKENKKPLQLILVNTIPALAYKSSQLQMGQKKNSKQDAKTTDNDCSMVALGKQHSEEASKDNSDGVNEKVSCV
Procedure: The 5-HT2AR antagonistic effect of the test compounds was confirmed by measuring the production amount of IP1 using the HEK293 cell line permanently overexpressing the human 5-HT2AR. The test compounds were dissolved in 100% DMSO to a final concentration of 10 mM. The starting concentration of 10 μM was prepared from the stock solution, followed by serial dilutions to prepare working solutions in a buffer containing lithium chloride (LiCl). The cells and compounds prepared in the test buffer were placed in a 96-well plate and incubated at room temperature for 10 minutes. Serotonin of EC80 concentration was added, followed by incubation at 37° C. for 30 minutes in a light-shielding state. To measure IP1 accumulation in cells, JP1-d2 acceptor and IP1-Cryptate donor-which are HTRF-based substances for fluorescence signals-were added and incubated for 1 hour at room temperature in a light-shielded state. The fluorescent emission signals of acceptor and donor were detected, and HTRF ratio values were substracted by mean value of serotonin control. The percentage of activation was calculated by normalization of the serotonin control (0%) and IP1 control (100%). The IC50 values of the test compounds are represented in Table 1. (+: 1,000-2,000 nM, ++: 500-1,000 nM, +++: 100-500 nM, ++++: less than 100 nM).

T1 sequence (P41594 21-1212): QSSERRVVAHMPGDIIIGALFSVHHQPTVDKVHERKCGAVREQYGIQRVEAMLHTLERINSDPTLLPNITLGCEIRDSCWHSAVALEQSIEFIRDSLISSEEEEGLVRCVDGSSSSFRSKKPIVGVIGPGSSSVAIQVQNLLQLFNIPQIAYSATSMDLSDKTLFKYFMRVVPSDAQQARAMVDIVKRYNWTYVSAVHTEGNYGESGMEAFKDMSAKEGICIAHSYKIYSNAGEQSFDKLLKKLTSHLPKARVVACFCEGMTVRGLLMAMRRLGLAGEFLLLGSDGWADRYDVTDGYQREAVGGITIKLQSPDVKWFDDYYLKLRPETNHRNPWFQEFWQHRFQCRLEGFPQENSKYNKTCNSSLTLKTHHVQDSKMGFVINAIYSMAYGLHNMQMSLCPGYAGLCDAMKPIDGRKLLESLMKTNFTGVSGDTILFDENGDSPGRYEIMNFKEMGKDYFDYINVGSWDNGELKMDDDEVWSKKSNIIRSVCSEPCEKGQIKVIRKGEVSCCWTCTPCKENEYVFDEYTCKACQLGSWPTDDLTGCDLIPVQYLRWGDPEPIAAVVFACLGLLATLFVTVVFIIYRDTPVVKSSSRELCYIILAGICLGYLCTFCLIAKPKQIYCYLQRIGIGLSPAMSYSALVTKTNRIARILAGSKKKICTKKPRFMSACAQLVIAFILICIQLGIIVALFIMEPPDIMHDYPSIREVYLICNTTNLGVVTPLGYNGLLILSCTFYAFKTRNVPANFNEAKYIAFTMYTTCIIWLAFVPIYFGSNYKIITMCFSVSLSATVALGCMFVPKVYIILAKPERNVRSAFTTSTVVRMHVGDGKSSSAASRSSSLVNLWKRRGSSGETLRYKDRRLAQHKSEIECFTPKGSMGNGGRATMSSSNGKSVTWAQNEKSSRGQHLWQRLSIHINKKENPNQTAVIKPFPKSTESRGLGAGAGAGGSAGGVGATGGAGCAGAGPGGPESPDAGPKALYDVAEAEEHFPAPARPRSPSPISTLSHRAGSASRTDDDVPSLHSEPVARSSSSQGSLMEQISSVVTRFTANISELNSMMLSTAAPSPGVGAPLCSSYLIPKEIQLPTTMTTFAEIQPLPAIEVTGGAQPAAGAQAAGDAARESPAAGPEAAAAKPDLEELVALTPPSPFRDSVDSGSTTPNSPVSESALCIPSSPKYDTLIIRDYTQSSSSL

Structure (SMILES) | IC50 (mGluR5) [nM] | IC50 (human 5-HT2AR) [nM]
O=C(NCC1(N2CCOCC2)CCCC1)c1ccc(C#Cc2ccccc2F)cc1 [Example 23, 4-((2-fluorophenyl)ethynyl)-N-((1-morpholinocyclopentyl)methyl)benzamide] | 500 to 1000 | 100 to 500
O=C(NCC1(F)COC1)c1ccc(C#Cc2ccc(F)cc2F)cc1 [Example 123, 4-((2,4-difluorophenyl)ethynyl)-N-((3-fluorooxetan-3-yl)methyl)benzamide] | 500 to 1000 | < 100
CC1(CNC(=O)c2ccc(C#Cc3ccc(F)cc3F)cc2)CCCC1 [Example 108, 4-((2,4-difluorophenyl)ethynyl)-N-((1-methylcyclopentyl)methyl)benzamide] | < 100 | 100 to 500
O=C(NC[C@@H]1CCCOC1)c1ccc(C#Cc2ccc(F)cc2)cc1 [Example 100, (S)-4-((4-fluorophenyl)ethynyl)-N-((tetrahydro-2H-pyran-3-yl)methyl)benzamide] | 100 to 500 | 500 to 1000
CCC1(CNC(=O)c2ccc(C#Cc3ccc(F)cc3F)cc2)COC1 [Example 122, 4-((2,4-difluorophenyl)ethynyl)-N-((3-ethyloxetan-3-yl)methyl)benzamide] | 100 to 500 | < 100
CC1(CNC(=O)c2ccc(C#Cc3ccccc3F)c(F)c2)COC1 [Example 84, 3-fluoro-4-((2-fluorophenyl)ethynyl)-N-((3-methyloxetan-3-yl)methyl)benzamide] | 1000 to 2000 | 1000 to 2000
O=C(NCC1(NC2CC2)CCCC1)c1ccc(C#Cc2ccc(F)cc2)cc1 [Example 13, N-((1-(cyclopropylamino)cyclopentyl)methyl)-4-((4-fluorophenyl)ethynyl)benzamide] | 500 to 1000 | < 100
O=C(NC[C@H]1C[C@H](O)C1)c1ccc(C#Cc2ccccc2F)cc1 [Example 86, 4-((2-fluorophenyl)ethynyl)-N-(((1r,3r)-3-hydroxycyclobutyl)methyl)benzamide] | 100 to 500 | 1000 to 2000
O=C(NCC1(CO)CCOCC1)c1ccc(C#Cc2ccccc2F)cc1 [Example 38, 4-((2-fluorophenyl)ethynyl)-N-((4-(hydroxymethyl)tetrahydro-2H-pyran-4-yl)methyl)benzamide] | 100 to 500 | 500 to 1000
Cc1cc(C#Cc2ccc(C(=O)NCC3(NC4CC4)CCCC3)cc2)ccn1 [Example 21, N-((1-(cyclopropylamino)cyclopentyl)methyl)-4-((2-methylpyridin-4-yl)ethynyl)benzamide] | 1000 to 2000 | 500 to 1000
O=C(NCC1(NC2CC2)CCC1)c1ccc(C#Cc2ccc(F)cn2)cc1 [Example 4, N-((1-(cyclopropylamino)cyclobutyl)methyl)-4-((5-fluoropyridin-2-yl)ethynyl)benzamide] | 1000 to 2000 | 100 to 500
O=C(NCC1CCCCO1)c1ccc(C#Cc2ccc(F)cc2F)cc1 (stereo not shown) [Example 115, 4-((2,4-difluorophenyl)ethynyl)-N-((tetrahydro-2H-pyran-2-yl)methyl)benzamide] | 100 to 500 | < 100
O=C(NCC1(NC2CC2)CCC1)c1ccc(C#Cc2ccncc2)c(F)c1 [Example 7, N-((1-(cyclopropylamino)cyclobutyl)methyl)-3-fluoro-4-(pyridin-4-ylethynyl)benzamide] | 1000 to 2000 | 100 to 500
O=C(NCC1(N2CCOCC2)CCC1)c1ccc(C#Cc2ccccc2F)cc1 [Example 96, 4-((2-fluorophenyl)ethynyl)-N-((1-morpholinocyclobutyl)methyl)benzamide] | 1000 to 2000 | 500 to 1000
O=C(O)CC1(CNC(=O)c2ccc(C#Cc3ccccc3F)cc2)CCCCC1 [Example 76, 2-(1-((4-((2-fluorophenyl)ethynyl)benzamido)methyl)cyclohexyl)acetic acid] | 500 to 1000 | 100 to 500
O=C(NCC1(NC2CC2)CCCCCC1)c1ccc(C#Cc2ccc(F)cc2)cc1 [Example 14, N-((1-(cyclopropylamino)cycloheptyl)methyl)-4-((4-fluorophenyl)ethynyl)benzamide] | 100 to 500 | < 100
O=C(NC[C@H]1CCCO1)c1ccc(C#Cc2ccc(F)cc2)cc1 [Example 110, (R)-4-((4-fluorophenyl)ethynyl)-N-((tetrahydrofuran-2-yl)methyl)benzamide] | < 100 | 100 to 500
COC(=O)CC1(CNC(=O)c2ccc(C#Cc3ccccc3F)cc2)CCOCC1 [Example 75, methyl 2-(4-((4-((2-fluorophenyl)ethynyl)benzamido)methyl)tetrahydro-2H-pyran-4-yl)acetate] | 100 to 500 | 500 to 1000
CC1(CNC(=O)c2ccc(C#Cc3ccccc3F)cc2)CC(F)(F)C1 [Example 97, N-((3,3-difluoro-1-methylcyclobutyl)methyl)-4-((2-fluorophenyl)ethynyl)benzamide] | < 100 | 1000 to 2000
CNC(=O)C1(CNC(=O)c2ccc(C#Cc3ccccc3F)cc2)CCOCC1 [Example 53, 4-((4-((2-fluorophenyl)ethynyl)benzamido)methyl)-N-methyltetrahydro-2H-pyran-4-carboxamide] | 500 to 1000 | 1000 to 2000
CC1(CNC(=O)c2ccc(C#Cc3ccccc3F)cc2)CCC1 [Example 105, 4-((2-fluorophenyl)ethynyl)-N-((1-methylcyclobutyl)methyl)benzamide] | < 100 | 500 to 1000
O=C(NCC1(CF)CCOCC1)c1ccc(C#Cc2ccccc2F)cc1 [Example 50, N-((4-(fluoromethyl)tetrahydro-2H-pyran-4-yl)methyl)-4-((2-fluorophenyl)ethynyl)benzamide] | < 100 | 500 to 1000
O=C(NCC1(NC2CC2)CCCCCC1)c1ccc(C#Cc2ccc(F)c(F)c2)cc1 [Example 18, N-((1-(cyclopropylamino)cycloheptyl)methyl)-4-((3,4-difluorophenyl)ethynyl)benzamide] | 1000 to 2000 | 500 to 1000
CC(C)NC1(CNC(=O)c2ccc(C#Cc3ccccc3F)cc2)CCCC1 [Example 30, 4-((2-fluorophenyl)ethynyl)-N-((1-(isopropylamino)cyclopentyl)methyl)benzamide] | 500 to 1000 | < 100
CCC1(CNC(=O)c2ccc(C#Cc3ccc(F)cc3)cc2)COC1 [Example 112, N-((3-ethyloxetan-3-yl)methyl)-4-((4-fluorophenyl)ethynyl)benzamide] | 100 to 500 | 100 to 500
O=C(NC[C@H]1CCOC1)c1ccc(C#Cc2ccc(F)cc2F)cc1 [Example 109, (R)-4-((2,4-difluorophenyl)ethynyl)-N-((tetrahydrofuran-3-yl)methyl)benzamide] | 500 to 1000 | 100 to 500
O=C(NCC1CCOCC1)c1ccc(C#Cc2ccccc2F)cc1F [Example 35, 2-fluoro-4-((2-fluorophenyl)ethynyl)-N-((tetrahydro-2H-pyran-4-yl)methyl)benzamide] | < 100 | 1000 to 2000
COC(=O)CC1(CNC(=O)c2ccc(C#Cc3ccccc3F)cc2)CCCCC1 [Example 74, methyl 2-(1-((4-((2-fluorophenyl)ethynyl)benzamido)methyl)cyclohexyl)acetate] | 100 to 500 | 500 to 1000
O=C(NC[C@@H]1CCCO1)c1ccc(C#Cc2ccc(F)cc2)cc1 [Example 111, (S)-4-((4-fluorophenyl)ethynyl)-N-((tetrahydrofuran-2-yl)methyl)benzamide] | 100 to 500 | 100 to 500
